Results on 21 molecules are retold here after ChEMBL document CHEMBL1136846, “Investigation on the role of the tetrazole in the binding of thiotetrazolylacetanilides with HIV-1 wild type and K103N/Y181C double mutant reverse transcriptases” (Bioorg Med Chem Lett, 2009).

The structures appear in SMILES notation. pEC50, pIC50: −log10 of the molar value.

Experiment [1] has as its target Human immunodeficiency virus type 1 reverse transcriptase (Human immunodeficiency virus 1, UniProt Q72547). Briefly: Inhibition of wild type HIV1 reverse transcriptase by scintillation proximity assay. Background: Scintillation proximity formats need no separation of bound from free tracer.
Experiment [2] concerns Human immunodeficiency virus 1. Briefly: Antiviral activity against HIV1 infected in human C8166 cells assessed as inhibition of viral replication after 3 days by ELISA. The format is functional, organism-based. The note with it: Human immunodeficiency virus 1, C8166, 72 h. On the technique in general: In an ELISA, binding on a coated surface is turned into a signal by an enzyme label.

Experiment [3] deals with Human immunodeficiency virus 1. Briefly: Antiviral activity against HIV1 with transcriptase […] mutation infected in human C8166 cells assessed as inhibition of viral replication after 3 days by ELISA. The format is functional, organism-based. The note with it: Human immunodeficiency virus 1, C8166, 72 h.

The pIC50 is the IC50 on a negative log10 scale, so that one unit is a factor of ten. Low values mean a high IC50, high ones a low IC50. In experiment [1], `Cc1ccc(-n2nnnc2SCC(=O)Nc2ccc(-c3ccc(OCC(=O)O)cc3)cc2Cl)c(Cl)c1` had a pIC50 of 8.72.

In the case of `Cc1[nH]nc(OCC(=O)Nc2ccc(-c3ccc(CC(=O)O)cc3)cc2Cl)c1-c1ccc(C(C)(C)C)cc1Cl`, the pIC50 in experiment [1] is 5.68. Still for that read-out and setting: next, `Cc1ccc(-n2cc(C)nc2SCC(=O)Nc2ccccc2Cl)c(Cl)c1`: < 6.00. For orientation: pEC50 means the negative decadic logarithm of the EC50, by convention in mol/L. Consider `Cc1[nH]nc(OCC(=O)Nc2ccc(C#CC(C)(C)C(=O)O)cc2Cl)c1-c1ccc(C(C)(C)C)cc1Cl`, for which the pEC50 is 5.41 in experiment [2] and 7.14 in experiment [3]. The same molecule showed a pIC50 in experiment [1] of 5.62. Take `Cc1ccc(-c2ccccc2OCC(=O)Nc2ccc(-c3ccc(CC(=O)O)cc3)cc2Cl)c(Cl)c1`: the pIC50 in experiment [1] is 6.75. Same read-out and setting: next, `Cc1ccc(-c2c(SCC(=O)Nc3ccc(-c4ccc(CC(=O)O)cc4)cc3Cl)cnn2C)c(Cl)c1`: 8.72. Regarding `Cc1ccc(-c2c(SCC(=O)Nc3ccc(-c4ccc(OCC(=O)O)cc4)cc3Cl)ccn2C)c(Cl)c1`, the pIC50 in experiment [1] was < 6.00. On the same count and under the same terms, next, `Cc1ccc(-n2c(C)cnc2SCC(=O)Nc2ccc(-c3ccc(CC(=O)O)cc3)cc2Cl)c(Cl)c1`: 8.02; `Cc1ccc(-c2nnsc2SCC(=O)Nc2ccc(-c3ccc(CC(=O)O)cc3)cc2Cl)c(Cl)c1`: 8.70. Consider `Cc1ccc(-c2ncsc2SCC(=O)Nc2ccc(-c3ccc(CC(=O)O)cc3)cc2Cl)c(Cl)c1`, for which the pIC50 in experiment [1] is 6.70.

`C/C(=C/CCC(=O)Nc1ccc(-c2ccc(OCC(=O)O)cc2)cc1Cl)c1ccc(C)cc1Cl` had a pIC50 in experiment [1] of 7.82. In experiment [1], `C/C(=C\CCC(=O)Nc1ccc(-c2ccc(OCC(=O)O)cc2)cc1Cl)c1ccc(C)cc1Cl` had a pIC50 of 6.57. In turn, `Cc1ccc(-c2ncoc2SCC(=O)Nc2ccc(-c3ccc(CC(=O)O)cc3)cc2Cl)c(Cl)c1` showed a pIC50 in experiment [1] of 6.44. Take `CC(C)(C)c1ccc(-c2c[nH]nc2OCC(=O)Nc2ccc(-c3ccc(CC(=O)O)cc3)cc2Cl)c(Cl)c1`: the pEC50 in experiment [2] is 5.31; in experiment [3] it was 6.35. Besides, the pIC50 in experiment [1] was < 5.48.

On to `Cc1ccc(-n2nccc2SCC(=O)Nc2ccc(-c3ccc(CC(=O)O)cc3)cc2Cl)c(Cl)c1`, for which, in experiment [1], the pIC50 was 8.10.

With `Cc1ccc(-n2ncc(C)c2SCC(=O)Nc2ccc(-c3ccc(CC(=O)O)cc3)cc2Cl)c(Cl)c1`, the pIC50 in experiment [1] was < 5.00. Same read-out and setting: the same measure for `Cc1ccc(-n2nccc2OCC(=O)Nc2ccc(-c3ccc(CC(=O)O)cc3)cc2Cl)c(Cl)c1`: 7.74; for `Cc1ccc(-c2ccccc2SCC(=O)Nc2ccc(-c3ccc(CC(=O)O)cc3)cc2Cl)c(Cl)c1`: 7.74; for `Cc1ccc(-n2nncc2SCC(=O)Nc2ccc(-c3ccc(CC(=O)O)cc3)cc2Cl)c(Cl)c1`: 8.62. Regarding `Cc1[nH]nc(OCC(=O)Nc2ccc(C#CC(C)(C)CO)cc2Cl)c1-c1ccc(C(C)(C)C)cc1Cl`, the pEC50 in experiment [2] is < 5.30; in experiment [3] it was 6.75. For the same molecule, the pIC50 in experiment [1] is < 5.48.

In experiment [1], `C/C(=C/CCC(=O)Nc1ccc(-c2ccc(CC(=O)O)cc2)cc1Cl)c1ccc(C)cc1Cl` showed a negative-log IC50 (pIC50) of 8.62.
